Assay results taken from US20250170102A1, “PHARMACEUTICAL COMPOSITION FOR INHIBITING FIBROSIS IN ORGANS” (NAGASAKI UNIVERSITY, priority 2022, published 2025).

Columns and labels:
[1] = test system: liver fibrosis caused by non-alcoholic steatohepatitis; conditions: rats; reported in non-patent literature 4; cited from earlier work
[2] = test system: UUO-induced renal fibrosis model mice; assay: Unilateral ureteral obstruction (UUO)-induced renal fibrosis model mice with losartan treatment; type: in vivo, C57BL/6 mice; conditions: for body weight: prior to UUO surgery and 1 and 2 weeks post-surgery, among all groups; for level of BUN in serum / level of CRE in serum / swelling of the left kidneys (hydronephrosis) / fibrosis area of kidney (Masson's trichrome staining): 2 weeks after UUO surgery; for level of BUN in serum / level of CRE in serum: compared to control group; for swelling of the left kidneys (hydronephrosis): versus control group; for fibrosis area of kidney (Masson's trichrome staining): versus left kidney of control group (UUO)
Excerpt: C57BL/6 mice (8-week-old, CLEA) were used. The abdomen of mouse was opened under general anesthesia and the left ureter was ligated. The right ureter was not ligated and the right kidney served as a control. The surgical wound was then closed with a single-layer suture of the peritoneum, muscular layer and skin followed by closure of the surgical wound. UUO-induced renal fibrosis model is known to manifest the symptoms of hydronephrosis in the ligated kidney and then develop interstitial fibrosis caused by interstitial deposition of type IV collagen as well as apoptosis of tubular cells at day 3 post-UUO surgery. Post-UUO surgery mice were divided into three groups: low-dose losartan group (1 mg/kg, n=3), high-dose losartan group (3 mg/kg, n=3) and no losartan administration group (n=3). Low-dose losartan group was given losartan (FUJIFILM Wako Pure Chemical Corporation) in their drinking water at a final concentration of 4.6 mg/L, which providing an estimated daily dose of 1 mg/kg. High-dose losartan group was given losartan in their drinking water at a final concentration of 13.8 mg/L, which providing an estimated daily dose of 3 mg/kg. No losartan administration group was given drinking water without addition of losartan. Body weight was measured prior to UUO surgery and 1 and 2 weeks post-surgery. Mice were euthanized 2 weeks post-surgery. Prior to sacrifice, whole blood was collected from IVC and serum was separated. The levels of serum BUN and CRE were measured. The left and right kidneys were then harvested and photographed. Kidneys were fixed in 4% paraformaldehyde and embedded into paraffin block. Tissue sections of about 5 µm thickness were used for histological analysis. (3) Masson's trichrome staining and Hematoxylin and Eosin staining Tissue sections were deparaffinized and rehydrated. Masson's trichrome staining was performed using Trichrome Stain (Masson) Kit (Sigma-Aldrich) according to the manufacturer's instructions. Hematoxylin and Eosin (HE) staining was performed by a conventional method. Tissue specimens were observed under with an optical microscope (IX71, Olympus). Statistical analysis was performed in the same manner as in Example 1.

[3] = test system: acute lung injury caused by mechanical stimulation; conditions: reported in non-patent literature 3; cited from earlier work
[4] = test system: partial inferior vena cava ligation model mice (liver fibrosis); assay: Partial inferior vena cava ligation model mice with low-dose losartan treatment; type: in vivo, C57BL/6 mice
Excerpt: C57BL/6 mice (10-week-old, CLEA) were used. All animal experiments were approved by the Institutional Animal Care and Use Committee of Nagasaki University, and carried out in accordance with the institutional guidelines.
IVC was separated and a small tube (0.9 mm diameter) was placed along with the anterior surface of IVC ((B) in FIG. 1). The tube was tightly ligated together with the IVC ((C) in FIG. 1), and immediately after that, the tube was gently removed ((D) in FIG. 1). The abdomen was then closed with a suture of the peritoneal muscle/fascia followed by closure of the skin. Removing the 0.9 mm diameter tube from IVC ligation was expected to reduce the cross-sectional area of IVC by about 80% based on Simonetto et al.
After all procedures, mice were divided into Losartan group (n=6), IVCL group (n=6) and Sham group (n=6). Losartan group was given losartan (FUJIFILM Wako
Pure Chemical Corporation) in their drinking water at a final concentration of 2.3 mg/L, which providing an estimated daily dose of 0.5 mg/kg. IVCL group was given drinking water without addition of any drug. Treatment was continued until the cessation of the experiments. Sham group received a sham operation including all above steps with the exception of partial IVC ligation, and was given drinking water without addition of any drug.
Mice were euthanized 8 weeks postoperatively. Prior to sacrifice, the body weight was measured, and whole blood was collected from IVC and serum was separated. The levels of serum ALT and AST were measured. The suprahepatic IVC was then transected and the liver was perfused with PBS through the portal vein to remove circulating blood and fibrinogen. The spleen and liver were harvested and weighed, and the spleen/body and liver/body weight ratios were calculated. Liver tissues were fixed in 4% paraformaldehyde and embedded into paraffin block. Tissue sections of about 5 um thickness were used for histological analysis.
Liver tissue sections were deparaffinized and rehydrated. Masson's trichrome staining was performed using Trichrome Stain (Masson) Kit (Sigma-Aldrich) according to the manufacturer's instructions, and then observed under an optical microscope (IX71, Olympus).
Immunohistochemistry analysis on the liver tissues was performed to understand the relevant mechanism. Briefly, liver tissue sections were blocked with 10% bovine serum albumin, and then incubated with primary antibodies (Table 1) overnight at 4°° C., followed by incubation with secondary antibodies (Table 2) for 1 hour at room temperature in the dark. Sections were then mounted with medium containing DAPI. Apoptotic cells were detected by the usage of TUNEL staining kit (Abcam, #ab66108) according to the manufacturer's instructions. Briefly, sections were incubated with DNA labeling solution at 37° C. for 60 min, followed by the addition of PI/RNase A solution for 30 min. Immunofluorescences of stained liver tissues were detected using a fluorescence microscope (FV10i, Olympus). For each staining, at least 10 images were taken from randomly selected fields at 60× magnification, and the mean fluorescence intensity was measured by ImageJ software.
All the results were presented as mean±SD. Statistical significance was determined by one-way analysis of variance (ANOVA) followed by Turkey's test. P value <0.05 was accepted as significant. GraphPad Prism 8 software was used for statistical analysis.

[5] = test system: human hepatic stellate cells (HSCs); assay: Ex vivo hydrostatic pressure loading test in human HSCs; type: cell-based; conditions: 10 nM losartan, 50 mmHg hydrostatic pressure 24 hours
Protocol: Primary human HSCs were purchased from ScienCell Research Laboratories. Cells were expanded by using stellate cell medium (ScienCell Research Laboratories) in a humidified incubator under 5% CO2 and 95% air at 37° C. The third passaged cells were used for the following experiments. A pneumatic pressurizing system (Strex. Inc) was used to induce hydrostatic pressure. Briefly, HSCs were seeded in 60-mm diameter culture dishes (5×10^4 cells/dish) and 4-well culture chamber slides (2×10^4 cells/well). Cells were incubated for 3 days to form about 70% confluent, and then half of the culture dishes and slides were randomly selected to be loaded by 50 mmHg hydrostatic pressure for 24 hours, with or without the addition of 10 nM losartan in medium. The inventors used 50 mmHg for experiments based on their preliminary experiments and a previous report (Yoshino et al., Commun Biol 3:152, 2020, Chen et al., Int J Biol Sci 15:2509-2521, 2019). As controls, non-hydrostatic pressure-loaded groups were provided for each of Losartan addition group and non-Losartan addition group. RT-qPCR was performed to evaluate the expression of RHOA, ROCK1, ROCK2, ACTA2, TGFB1, and COL1A1. Briefly, total RNA was isolated from HSCs using Quick-RNA MicoroPrep Kit, and 1.25 μg of RNA was reverse-transcribed using SuperScript VILO cDNA Synthesis Kit (Thermo Fisher Scientific). Quantitative PCR was carried out with SYBR Green real-time PCR Master Mix (Toyobo). The reactions were performed on a CFX96 real-time PCR System (BIO-RAD). The primer sequences are shown below. GAPDH was used for normalization. HSCs were fixed in 4% paraformaldehyde before blocked by 10% bovine serum albumin. After overnight incubation with the primary antibodies, cells were incubated with secondary antibodies for 1 hour at room temperature, and then mounted with medium containing DAPI. F-actin fibers were stained with TRITC-conjugated phalloidin in mounting medium. Immunofluorescences of stained cells were detected using a fluorescence microscope (FV10i, Olympus). For each staining, 10 images were taken from randomly selected fields at 60× magnification, and the mean fluorescence intensity was measured by ImageJ software. Statistical analysis was performed in the same manner as in Example 1.

[6] = losartan 0.5 mg/kg/day in drinking water, 8 weeks after partial IVC ligation, among Sham, IVCL and Losartan groups
[7] = losartan 0.5 mg/kg/day in drinking water, 8 weeks after partial IVC ligation, compared with Sham group
[8] = losartan 0.5 mg/kg/day, 8 weeks, compared to IVCL group
[9] = losartan 0.5 mg/kg/day, 8 weeks, versus upregulation in IVCL group
[10] = compared to pressure-loaded group without losartan

SMILES: CCCCc1nc(Cl)c(CO)n1Cc1ccc(-c2ccccc2-c2nn[nH]n2)cc1 [losartan]
- liver fibrosis caused by non-alcoholic steatohepatitis [1]: mitigates
- body weight ([2]; high-dose losartan 3 mg/kg/day in drinking water): No significant change
- level of BUN in serum ([2]; high-dose losartan 3 mg/kg/day): significantly decreased
- level of CRE in serum ([2]; high-dose losartan 3 mg/kg/day): significantly decreased
- swelling of the left kidneys (hydronephrosis) ([2]; high-dose losartan 3 mg/kg/day): significantly inhibited
- fibrosis area of kidney (Masson's trichrome staining) ([2]; high-dose losartan 3 mg/kg/day): significant decreasing
- body weight ([2]; low-dose losartan 1 mg/kg/day in drinking water): No significant change
- level of BUN in serum ([2]; low-dose losartan 1 mg/kg/day): significantly decreased
- level of CRE in serum ([2]; low-dose losartan 1 mg/kg/day): significantly decreased
- swelling of the left kidneys (hydronephrosis) ([2]; low-dose losartan 1 mg/kg/day): significantly inhibited
- fibrosis area of kidney (Masson's trichrome staining) ([2]; low-dose losartan 1 mg/kg/day): significant decreasing
- acute lung injury caused by mechanical stimulation [3]: effectively relieves
- level of ALT in serum [4, 6]: not significantly different
- level of AST in serum [4, 6]: not significantly different
- liver/body weight ratio [4, 7]: kept at comparable levels
- spleen/body weight ratio [4, 7]: kept at comparable levels
- expression of ROCK2 in liver tissue (immunostaining) ([4]; losartan 0.5 mg/kg/day, 8 weeks, all groups): not substantially changed
- changes in the lobular architecture of liver [4, 8]: effectively alleviated
- fibrotic area of liver tissue (Masson's trichrome staining) [4, 8]: significantly decreased
- percentage of apoptotic cells in liver tissue (TUNEL staining) ([4]; losartan 0.5 mg/kg/day, 8 weeks, compared to Sham group): not significantly changed
- expression of α-SMA in liver tissue (immunostaining signal intensity) ([4]; losartan 0.5 mg/kg/day, 8 weeks, in contrast to IVCL group): significantly reduced
- expression of ROCK1 in liver tissue (immunostaining) [4, 9]: significantly reduced
- expression of RhoA in liver tissue (immunostaining) [4, 9]: significantly reduced
- expression of p-MLC2 in liver tissue (immunostaining) [4, 9]: effectively attenuated
- expression of ROCK2 (immunohistochemistry) [5]: no significant change
- expression of ROCK2 gene (RT-qPCR) [5]: no significant change
- formation of actin stress fibers (phalloidin staining for F-actin) [5]: effectively reduced
- expression of ACTA2 gene (RT-qPCR) [5, 10]: significantly decreased
- expression of AT1R gene (RT-qPCR) [5, 10]: significantly decreased
- expression of AT1R in the cytoplasm (immunohistochemistry) [5, 10]: significantly decreased
- expression of AT1R in the nucleus (immunohistochemistry) [5, 10]: significantly decreased
- expression of COL1A1 gene (RT-qPCR) [5, 10]: significantly decreased
- expression of ROCK1 (immunohistochemistry) [5, 10]: significantly decreased
- expression of ROCK1 gene (RT-qPCR) [5, 10]: significantly decreased
- expression of RhoA (immunohistochemistry) [5, 10]: significantly decreased
- expression of RhoA gene (RT-qPCR) [5, 10]: significantly decreased
- expression of TGF-β1 (immunohistochemistry) [5, 10]: significantly decreased
- expression of TGFB1 gene (RT-qPCR) [5, 10]: significantly decreased
- expression of p-MLC2 (immunohistochemistry) [5, 10]: significantly decreased
- expression of type 1 collagen (immunohistochemistry) [5, 10]: significantly decreased
- expression of α-SMA (immunohistochemistry) [5, 10]: significantly decreased
